The test system of one test is retinal precursor cells. As to the kind of experiment: Sphere passaging and high-throughput drug screening: proliferation of retinal precursor cells within one week. Format: cell-based, mammalian. The settings on record: increase over control; retinal precursor cells. Here is the method: Kynurenic Acid (0.2 mg/mL), trypsin (1.33 mg/mL), and hyaluronidase (0.67 mg/mL) were weighed out and dissolved in high magnesium/low calcium artificial cerebral spinal fluid (aCSF) at 37° C. Fibroblast growth factor 2 (FGF2; 10 ng/mL) and heparin (2 μg/mL) were added to 100 mL of serum-free media (SFM). Ovomucoid trypsin inhibitor (1 mg/mL) was dissolved in warm SFM and sterile filtered ([…]).
A dissecting microscope, cold light source, and sterile surgical instruments were set up inside of a sterile biological safety cabinet (BSC). Mammalian eyes were enucleated and placed in a petri dish containing cold, sterile aCSF. Under the dissecting microscope, hair, connective tissue, and the dorsal and ventral oblique muscles were cleared from the scleral/corneal border with two sets of forceps. Next, curved or angled micro-dissecting scissors were used to cleave any remaining extraocular muscle tissue, the optic nerve, and cut the eyeball into symmetrical halves; beginning and finishing the cut from the hole left by the optic nerve. Using two sets of forceps to grasp the cornea, the two eye halves were peeled apart. The lens, optic nerve, and vitreous were separated from the eye shells and the eye shells were transferred into a new petri dish (also containing cold, sterile aCSF). To isolate the ciliary epithelium (CE), eye shells were oriented with the cornea on the right and retinal pigmented epithelium (RPE) on the left. A pair of straight forceps were used to pin down the eye shell on the RPE side while a scalpel blade was inserted between the CE and the iris, using pressure to slice the iris/cornea side off from the rest of the shell. Next, the scalpel was run along the border between the CE and the RPE to obtain the CE isolated as a thin strip of tissue. The CE strips were then transferred to a 35 mm dish containing 2 mL of dispase solution (Sigma; T1005) and incubated for 10 minutes at 37° C. Next, the strips were transferred from dispase into a 35 mm dish containing 2 mL of sterile filtered kynurenic acid, trypsin and hyaluronidase solution and incubated at 37° C. for 10 minutes. After incubation, the dish was returned to the dissecting scope, and the CE strips were pinned down with straight, non-serrated forceps, while non-serrated curved forceps were used to scrape the CE off from the underlying sclera. The bare scleral strips were then discarded, such that only the CE cells remained in the enzyme solution. Using a fire-polished, cotton-plugged glass pipette, the cells and enzyme solution were transferred to a 15 mL tube and triturated approximately 45 times to break apart the tissue. The 15 mL tube/cell suspension was centrifuged for 5 minutes at 1500 rpm. The supernatant was gently aspirated from the resulting pellet using a fire-polished, cotton-plugged glass pipette and 2 mL of trypsin inhibitor solution was added to the pellet. Using a small borehole, fire-polished, cotton-plugged glass pipette, the sample was triturated approximately 45 times until it was a single-cell suspension. The 15 mL tube/cell suspension was centrifuged for 5 minutes at 1500 rpm. The supernatant was gently aspirated from the resulting pellet and 1-2 mL of SFM with FGF2 and heparin (plating media) was added. The cells and media were mixed to ensure a uniform cell suspension and a 10 uL sample was taken and cell density was determined. The cells were then seeded and cultured at 10c/μL in culture-treated plates or flasks. After one week, roughly 1 in 500 cells proliferated to form free-floating, clonal spheres greater than 80 μm in diameter.
Human-derived spheres were passaged using the kynurenic acid, trypsin, hyaluronidase enzyme solution with the addition of collagenase I (0.5 mg/mL), collagenase II (0.5 mg/mL) and elastase (0.1 mg/mL). Mouse-derived spheres were passaged using hyaluronidase (0.67 mg/mL), collagenase I (0.5 mg/mL), and collagenase II (0.5 mg/mL) dissolved in Accustase solution (Sigma; SCR005). […]
As to `COc1cccc(CC(=O)Nc2ccc(-c3ccncc3)c(OC)c2)c1` [Compound E1072, N-(3-methoxy-4-(pyridin-4-yl)phenyl)-2-(3-methoxyphenyl)acetamide], the “increase of cell proliferation within one week” value turned out to be 40%.

The test is the same for the next values; noted with them: results table after the methods; retinal precursor cells grown one week with compound in 0.1% DMSO; control without compound = 100.
In the case of `COc1cc(NC(=O)Cc2cc(F)ccc2Cl)ccc1-c1ccncc1` [Compound E1062, 2-(2-chloro-5-fluorophenyl)-N-(3-methoxy-4-(pyridin-4-yl)phenyl)acetamide], the “Cell proliferation within one week [%]” value stood at 134%.

For the compound `COc1cc(NC(=O)Cc2ccccc2)ccc1-c1ccncc1` [Compound E1063, N-(3-methoxy-4-(pyridin-4-yl)phenyl)-2-phenylacetamide], the “Cell proliferation within one week [%]” value was determined as 130%.

Regarding `COc1cc(NC(=O)Cc2cccc(OC(F)F)c2)ccc1-c1ccncc1` [Compound E1066, 2-(3-(difluoromethoxy)phenyl)-N-(3-methoxy-4-(pyridin-4-yl)phenyl)acetamide], the “Cell proliferation within one week [%]” value turned out to be 108%.

Consider `COc1ccccc1CC(=O)Nc1ccc(-c2ccncc2)c(OC)c1` [Compound E1068, N-(3-methoxy-4-(pyridin-4-yl)phenyl)-2-(2-methoxyphenyl)acetamide], for which the “Cell proliferation within one week [%]” value is reported as 108%.

Take `COc1cc(NC(=O)Cc2ccc(F)cc2F)ccc1-c1ccncc1` [Compound E1069, 2-(2,4-difluorophenyl)-N-(3-methoxy-4-(pyridin-4-yl)phenyl) acetamide]: the “Cell proliferation within one week [%]” value was found to be 106%.

On to `COc1cc(NC(=O)Cc2cccc(C(F)(F)F)c2)ccc1-c1ccncc1` [Compound E1070, N-(3-methoxy-4-(pyridin-4-yl)phenyl)-2-(3-(trifluoromethyl)phenyl)acetamide], for which the “Cell proliferation within one week [%]” value amounted to 106%.

Regarding `COc1cc(NC(=O)Cc2ccccc2C(F)(F)F)ccc1-c1ccncc1` [Compound E1071, N-(3-methoxy-4-(pyridin-4-yl)phenyl)-2-(2-(trifluoromethyl)phenyl)acetamide], the “Cell proliferation within one week [%]” value amounted to 113%.

Consider `COc1cccc(CC(=O)Nc2ccc(-c3ccncc3)c(OC)c2)c1` [Compound E1072, N-(3-methoxy-4-(pyridin-4-yl)phenyl)-2-(3-methoxyphenyl)acetamide], for which the “Cell proliferation within one week [%]” value is given as 140%.

Take `COc1cc(NC(=O)Cc2ccccc2OC(F)F)ccc1-c1ccncc1` [Compound E1073]: the “Cell proliferation within one week [%]” value stood at 121%.

With `COc1cccc(CC(=O)Nc2ccc(-c3ccncc3)cc2)c1` [Compound E1078, 2-(3-methoxyphenyl)-N-(4-(pyridin-4-yl)phenyl)acetamide], the “Cell proliferation within one week [%]” value stood at 136%.
